In patent US8227408B2, “Leptin as an anti-amyloidogenic biologic and methods for delaying the onset and reducing Alzheimer's disease-like pathology” (Neurotez, Inc., priority 2005, dated 2012):

Legend:
[1] = tested on: transfected Neuro2a cells; assay: 125I-Aβ degradation and tracer uptake in culture media during treatments; format: cell-based, mouse; conditions: 1 mM 1,10-phenanthroline
Excerpt: Leptin was almost as efficient as methyl-β-cyclodextrin in lowering Aβ (FIG. 4a, 4b).

SY5Y cells = assay: 125I-Aβ uptake by SY5Y cells (apoE-dependent); format: cell-based, human
Experimental: Preparation of ApoE and binding with ^125I-Aβ. ApoE was isolated from the conditioned media of human embryonic kidney (HEK-293) cells stably-transfected with human apoE (having the ε3 allele or the ε4 allele) cDNA (Tezapsidis et al., FASEB J. 17:1322-1324 (2003)). These preparations, while usually poor in lipid, are fully functional for uptake experiments. ApoE then was pre-incubated with ^125I-Aβ overnight at 37° C. (Aβ/ApoE: 1/50 w/w) as described (Tezapsidis et al., FASEB J. 17:1322-1324 (2003)).
Aβ-uptake by SY5Y cells. Human ^125I-Aβ (iodinated at Tyr-10, Amersham Biosciences, IM 294) uptake was measured following addition of 0.1 nM ^125I-Aβ40 (SEQ ID NO: 4) to confluent SY5Y cells (60,000 cpm/ml) in the presence or absence of 100 ng/ml or 400 ng/ml leptin also included in a 24 h pre-incubation period. ^125I-Aβ was either added alone or was previously incubated with apoε3. In controls, Receptor Associated Protein (“RAP”, 1 μM) was added together with Aβ or the Aβ/apoE complex. RAP is an antagonist of a number of lipoprotein receptors (LaDu et al., Neurochem Int. 39:427-34 (2001)). After 24 h, the media were collected and subjected to scintillation counting for γ-Iradiation (Kang et al., 2000. J Clin Invest. 106:1159-66 (2000)). The amount of radioactivity was measured in both the trichloroacetic acid (10%) TCA pellets (representing intact Aβ) and the corresponding supernatants (representing degraded Aβ). 96.5±8.2% (mean±s.e.m., n=4 experiments, triplicate determinations) of the radioactivity found in the medium could be recovered in the TCA pellet and represented intact or oligomeric Aβ (not shown), when Aβ was pre-incubated with apoE.
The amount of TCA-precipitable radioactivity in the soluble fraction of cell lysates was compared to that in the total lysates, the ratio of which was typically about 0.8 to about 0.9 (not shown), to further verify that radioactivity was reduced in the media as a reflection of Aβ uptake by the cells, rather than due to non-specific binding to the extracellular surface of membranes or oligomerization/aggregation of Aβ.
In panel (a), Aβ uptake was measured in SY5Y cells following their treatment at 0 ng/ml, 100 ng/ml or 400 ng/ml leptin. Uptake also was measured in cells previously transfected with antisense DNA for PS1 as described (Tezapsidis et al., FASEB J. 17:1322-1324(2003)) (black). Uptake is expressed as the percentage of that observed with Aβ pre-incubated with apoε3 (medium gray) in the absence of leptin (first set of columns). […] Leptin induced a dose-dependent increase in Aβ uptake with a preference for apoε3 (medium gray) over apoε4 (light gray). In panel (b), SY5Y cells were pre-treated with […] cholesterol (+Chol) or normal medium (−Chol). Then Aβ uptake was measured following its preincubation with apoε3 (ε3) or apoε4 (ε4) in the absence (black) or the presence (gray) of about 400 ng/ml leptin. Cells were more resistant to taking-up Aβ when loaded with cholesterol. […] In panel (c), SY5Y cells were transiently transfected with SREBP-1 or SREBP-2 cDNA or an empty vector (Control). Then Aβ was measured in the medium by ELISAs (Figueiredo-Pereira et al., J Neurochem. 72:1417-22 (1999)) following treatment with (+) or without (−) leptin. […] In panel (d), Aβ uptake was measured in SY5Y cells prepared as in panel (c). Uptake was performed using Aβ/apoε3 complexes.

astrocytes = assay: Leptin immunostaining of astrocytes treated with cholesterol; format: cell-based, rat; conditions: astrocytes, 0, 5 or 10 μM cholesterol, 5 h
Experimental: (§1) Leptin was detected using a rabbit polyclonal antibody raised against mouse leptin, corss-reacting with human leptin (obtained from Dr. A. F. Parlow, Harbor-UCLA, CA). Immunofluorescent confocal microscopy was performed on 2% paraformaldehyde-fixed primary neural cells. Filipin staining was performed as described (Feng et al., Nat Cell Biol. 5:781-92 (2003)).
(§2) Neural cultures from ε15 rat cerebral cortex were processed for enrichment of neurons (a-d) or astrocytes (e-h) as described (Takeshima et al., J. Neurosci. Methods 67: 27-41 (1996)). After about 7 days to about 10 days in culture, cultures were treated for about 5 h with about 10 μg/ml cholesterol (b, f) or about 400 ng/ml leptin plus cholesterol (c, g) or leptin alone (d, h). Controls (a, e) were treated with culture media alone. Filipin staining was performed as described (Feng et al., Nat. Cell Biol. 5: 781-92 (2003)). Neurons (i-k) and astrocytes (l-n) prepared as above were treated with 0 μM (i, l), 5 μM (j, m) or 10 μM cholesterol (k, n) for 5 h. Immunostaining was performed for leptin (A.F.Parlow, Harbor-UCLA, CA).

neurons = assay: Leptin immunostaining of neurons treated with cholesterol; format: cell-based, rat; conditions: neurons, 0, 5 or 10 μM cholesterol, 5 h
Experimental: as §1, §2

β-secretase = assay: C99/C83 accumulation in SY5Y cells in presence of γ-secretase inhibitors (Western blot); format: cell-based, human; conditions: 5 h, with L-685,458 (100 nM) or Z-VL-CHO (100 μM); 10 μM cholesterol or 400 ng/ml leptin alone
[2] = tested on: Neuro2a cells stably transfected with hyg-sa134 (SEAP-APP); assay: Aβ production by Neuro2a cells stably transfected with hyg-sa134 (total Aβ in media, sandwich ELISA); format: cell-based, mouse; conditions: 5 h; about 400 ng/ml leptin alone or 10 μM water-soluble cholesterol alone; FIG. 4b

Compound	tracer's uptake by the cells [1]	Aβ degradation during the uptake (SY5Y cells; absence of apoE)	levels of leptin-like immunoreactivity (astrocytes)	levels of leptin-like immunoreactivity (neurons)	C99 level (β-secretase)	apoε3-Aβ taken up compared to controls (SY5Y cells; SY5Y cells preloaded with cholesterol/CDX, without leptin, FIG. 5b) [%]	levels of Aβ detected in the media (percentage of corresponding controls) [2] [%]
c1cnc2c(c1)ccc1cccnc12 [1,10-phenanthroline]	did not cause any significant difference	abolished Aβ degradation	–	–	–	–	–
CC(C)CCC[C@@H](C)[C@H]1CC[C@H]2[C@@H]3CC=C4C[C@@H](O)CC[C@]4(C)[C@H]3CC[C@]12C [cholesterol]	–	–	enhanced	enhanced	increase in C99	22±6	205±6
